Consider one molecule from patent US7795457B2, “Carbamate compounds” (Kosan Biosciences Incorporated, priority 2007, dated 2010).

For test [1], the system named is SKNSH. Nature of the test: Inhibition of tumor cell proliferation, SKNSH. The note with it: Homo sapiens, SK-N-SH, read-out: IC50, nM, SKNSH. Format: cell-based. How it is done: (§1) The biological activity of compounds of this invention was evaluated by measuring their inhibitory effect on the proliferation of various tumor cell lines. HCT-116 is a human colon cancer cell line. LNCap is a human prostate cancer cell line. SiHa is an HPV-16 positive human cervical cancer line.
(§2) Table D presents additional data for the activity of compounds A-1 and A-4 against various cell lines. In some instances, comparative data against leptomycin B (LMB) and/or compound VI (Dong et al., US 2005/0272727 A1 (2005) is also provided.
(§3) The additional cell lines tested against represent a variety of different cancers: bladder cancer (UM-UC-3), breast cancer (BT474, HCC1937, MDA-MB468, NCI-ADR), CNS cancer (U87MG (glioma), SKNSH (neuroblastoma)), colon cancer (LoVo, LS411N, LS513), head and neck cancer (CAL-27, FaDu), leukemia (CCRF-CEM, MOLT-4), liver cancer (HepG2), lung cancer (A549, NCI-H23, NCI-H358), melanoma (Colo829), ovarian cancer (OVCAR-4), pancreatic cancer (BxPC-3, Mia-PaCa2), prostate cancer (22Rv1, PC-3), and renal cancer (A-498, Caki-1).

Test [2] relates to CCRF-CEM. Nature of the test: Inhibition of tumor cell proliferation, CCRF-CEM. Format: cell-based. The note with it: Homo sapiens, exposure time 72 h. The method, then: as §1, §2, §3
Test [3] relates to CRM1 substrate RanBP1. Nature of the test: Nuclear export block (RanBP1 localization, recovery after compound removal). Format: cell-based. Conditions: recovery of cytoplasmic RanBP1 localization after compound washout (typically 1 h exposure; 8, 24 or 48 h recovery). The method, then: The nuclear export blocking capability of compounds of this invention was evaluated as follows:
1-5×10^4 cells were seeded onto 12 mm glass coverslips or wells of a chamber slide (for example, Lab-Tek #177445). Cells were grown overnight at 37° C. to allow cells to attach to the surface. Media was removed and replaced with media containing the desired test compound and incubated the required time period (typically 1 h). For recovery experiments, cells were washed with PBS or media and incubated in media without test compound for the desired recovery periods (typically 8, 24, or 48 h). The media was removed and coverslips/wells were washed with PBS pH 7.4 for 1 minute. Coverslips or slides were fixed with 3.7% formaldehyde in PBS for 20 minutes at room temperature, washed three times in PBS, and stained for the CRM1 substrate RanBP1.
Coverslips or chamber slides were permeabilized and blocked in 10% donkey serum, 0.1% Triton X-100 in PBS for 30 minutes at room temperature. Primary antibodies were diluted in PBS and incubated for 1 hour at room temperature: goat-anti-RanBP1 (Santa Cruz Biotechnology, sc-1160; 1:50 dilution) and mouse-anti-tubulin (Sigma, T9026; 1:400). Cells were washed 3×5 minutes in PBS. Secondary antibodies donkey-anti-goat Cy3 (705-165-147, Jackson Immunoresearch) and donkey anti-mouse FITC (715-095-150, Jackson Immunoresearch) were diluted 1:200 in PBS and incubated for 1 hour at room temperature. Secondary antibody was removed and cells were stained with a nuclear dye such as DAPI (Sigma, D8417; 2.5 ug/mL in PBS) or Hoechst 33342 (Molecular Probes, H3570; 100 ng/mL in PBS) for 5 minutes at room temperature. Cells were washed 3×5 minutes in PBS and coverslips were mounted with FluorSave (EMD Biosciences, 80058-108). Nuclear (N) or cytoplasmic (C) localization of RanBP1 was examined using a 40× objective on a Zeiss Axiovert 200 inverted epiflourescence microscope. Nuclear localization (N>C) was confirmed after the initial drugging period.

Test [4] relates to NCI-ADR. Put plainly: Inhibition of tumor cell proliferation, NCI-ADR. The note with it: Homo sapiens, NCI/ADR-RES, read-out: IC50, nM, NCI-ADR. Format: cell-based. The method, then:
as §1, §2, §3

Test [5] relates to LoVo. Put plainly: Inhibition of tumor cell proliferation, LoVo. Format: cell-based. The note with it: Homo sapiens, exposure time 1 h. How it is done:
as §1, §2, §3

In test [6] the test system is SiHa. Nature of the test: Inhibition of tumor cell proliferation, SiHa. Format: cell-based, human. The note with it: Homo sapiens, SiHa, read-out: Cancer Cell Line (IC50, nM) SiHa. The method, then:
as §1

The test system of test [7] is MDA-MB-468. Put plainly: Inhibition of tumor cell proliferation, MDA-MB-468. Format: cell-based. The note with it: Homo sapiens, exposure time 1 h. The method, then:
as §1, §2, §3

The subject of test [8] is MOLT-4. Put plainly: Inhibition of tumor cell proliferation, MOLT-4. Format: cell-based. Conditions: Homo sapiens, exposure time 72 h. The method, then:
as §1, §2, §3

Test [9] concerns Caki-1. Put plainly: Inhibition of tumor cell proliferation, Caki-1. Format: cell-based. The note with it: Homo sapiens, exposure time 1 h. How it is done:
as §1, §2, §3

The test system of test [10] is HCT-116. Put plainly: Inhibition of tumor cell proliferation, HCT-116. Format: cell-based, human. Conditions: Homo sapiens, read-out: Cancer Cell Line (IC50, nM) HCT-116. The method, then: as §1
Test [11] concerns PC-3. Put plainly: Inhibition of tumor cell proliferation, PC-3. Format: cell-based. Conditions: Homo sapiens. The method, then: as §1, §2, §3
Test [12] deals with A549. Put plainly: Inhibition of tumor cell proliferation, A549. Format: cell-based. The note with it: Homo sapiens, A549, 1 h, read-out: IC50, nM, A549. The method, then: as §1, §2, §3
In test [13] the test system is LNCap. Nature of the test: Inhibition of tumor cell proliferation, LNCap. Format: cell-based, human. Conditions: Homo sapiens, LNCaP, read-out: Cancer Cell Line (IC50, nM) LNCap. The method, then: as §1
Test [14] relates to A-498. Put plainly: Inhibition of tumor cell proliferation, A-498. Format: cell-based. The note with it: Homo sapiens, A498; exposure time 1 h. How it is done: as §1, §2, §3

Where two headings read alike, the source gives them in different places.

For `CC(=C/[C@H](C)C/C=C/C(C)=C/[C@@H](C)C(=O)[C@@H](C)[C@H](O)[C@@H](C)C/C(C)=C/COC(=O)NCc1ccccc1)/C=C/[C@H]1CC=CC(=O)O1` [Compound A-1], the IC50 in test [1] (1 h) came to 5.1 nM; in test [1] (72 h), 1.5 nM; in test [2], 4.2 nM; in test [4] (1 h) it was 194 nM; in [4] (72 h) it was 20.6 nM; in test [5], 10.3 nM. Also, the IC50 is 3.6 nM in test [6] (1 h); 1.1 nM in test [6] (72 h); 30.6 nM in test [7]; 3.2 nM in test [8]; 6.6 nM in [9]; 14.9 nM in test [10] (HCT-116, 1 h). Besides, the IC50 in test [10] (HCT-116, 72 h) stood at 3.3 nM; in [11] (exposure time 1 h), 7.4 nM; in [11] (exposure time 72 h), 2.7 nM; in test [12] it was 23.5 nM; in test [13] (1 h), 4.7 nM; in [13] (72 h) it was 1.8 nM. Also, in test [14], inhibition was half-maximal at 16 nM (IC50). Further, in [3], the “Nuclear Export Block” value is “Slow recovery”.

As a reminder, the IC50 is the concentration needed to halve the response being measured.
